Data on four compounds can be found in US11242337B2, “Compounds useful for treating gastrointestinal tract disorders” (Ardelyx, Inc., priority 2017, dated 2022).

Test [1] concerns the target T1, NHE3 (Homo sapiens, UniProt P48764).
T1 construct: expressed in transfected cells
T1 sequence (P48764 26-834): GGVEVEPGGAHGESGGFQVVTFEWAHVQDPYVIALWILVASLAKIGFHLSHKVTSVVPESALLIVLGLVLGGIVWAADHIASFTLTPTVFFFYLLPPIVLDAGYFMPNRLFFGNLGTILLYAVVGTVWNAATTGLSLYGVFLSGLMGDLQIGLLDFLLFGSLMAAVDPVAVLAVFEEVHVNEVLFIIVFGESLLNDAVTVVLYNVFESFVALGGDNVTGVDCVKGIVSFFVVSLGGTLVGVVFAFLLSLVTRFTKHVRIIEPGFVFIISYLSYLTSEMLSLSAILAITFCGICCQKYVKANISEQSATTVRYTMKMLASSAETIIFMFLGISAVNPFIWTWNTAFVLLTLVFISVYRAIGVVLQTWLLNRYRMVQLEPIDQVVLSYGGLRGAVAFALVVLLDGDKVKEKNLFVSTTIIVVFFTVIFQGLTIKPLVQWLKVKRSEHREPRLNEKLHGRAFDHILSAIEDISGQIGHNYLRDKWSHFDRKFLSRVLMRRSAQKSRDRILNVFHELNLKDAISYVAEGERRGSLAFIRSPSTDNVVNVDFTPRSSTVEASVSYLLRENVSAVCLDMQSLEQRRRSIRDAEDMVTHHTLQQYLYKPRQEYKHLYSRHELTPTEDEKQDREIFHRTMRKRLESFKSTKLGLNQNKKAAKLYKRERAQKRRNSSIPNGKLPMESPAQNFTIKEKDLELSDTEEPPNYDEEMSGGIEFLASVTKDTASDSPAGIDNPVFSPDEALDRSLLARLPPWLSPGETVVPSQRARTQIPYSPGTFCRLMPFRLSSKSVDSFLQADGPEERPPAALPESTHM
T1 sequence (Q99653 2-195 partner limits assumed): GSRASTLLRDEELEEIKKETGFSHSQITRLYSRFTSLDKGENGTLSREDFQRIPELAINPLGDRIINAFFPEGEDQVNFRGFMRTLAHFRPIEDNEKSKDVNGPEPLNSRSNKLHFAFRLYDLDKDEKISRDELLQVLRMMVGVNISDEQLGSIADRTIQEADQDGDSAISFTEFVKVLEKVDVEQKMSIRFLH
Kind of test: Cell-based assay of NHE-3 activity (pre-incubation inhibition), human. Conditions: human Preincubation; for pIC50: 0-30 μM test compound. The method, boiled down:
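Activity read as initial rate of BCECF fluorescence ratio change per minute (ex 439/505, em 538 nm) following NH4Cl prepulse acid loading. Compound (0–30 μM) present during 10 min Na+-free acidification at room temperature; cells were PS120 fibroblasts stably co-expressing human NHE3 and NHERF2.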

Test [2] addresses T1, NHE3. Kind of test: Cell-based assay of NHE-3 activity (persistent inhibition), human. The conditions noted are these: human Persistence, 60 min incubation then washout. The gist of the method:
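Persistent inhibition: compound (0-30 μM, 60 min, RT, NaCl-HEPES pH 7.4) removed before assay. Human NHE3/NHERF2 PS120 cells were then BCECF-loaded during NH4Cl pulse (30 min, 37 °C), acidified in Na+-free buffer, and Na+ added 10 min after washout; antiport measured as initial fluorescence-ratio change per minute.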

Structures are written as SMILES.

Consider `C[C@@H]1CN([C@H]2Cc3c(C#N)cc(Cl)cc3[C@@H]2Oc2ccc(S(=O)(=O)N[C@@H]3CCN(CCOCCNC(=O)NCCCCNC(=O)NCCOCCN4CC[C@@H](NS(=O)(=O)c5ccc(O[C@H]6c7cc(Cl)cc(C#N)c7C[C@@H]6N6CCN[C@H](C)C6)cc5)C4)C3)cc2)CCN1` [Example 133, 4-([(1S,2S)-6-Chloro-4-cyano-2-[(R)-3-methylpiperazin-1-yl]-2,3-dihydro-1H-inden-1-yl]oxy)-N—[(R)-1-(20-[(R)-3-([4-([(1S,2S)-6-chloro-4-cyano-2-[(R)-3-methylpiperazin-1-yl]-2,3-dihydro-1H-inden-1-yl]oxy)phenyl]sulfonamido)pyrrolidin-1-yl]-7,14-dioxo-3,18-dioxa-6,8,13,15-tetraazaicosyl)pyrrolidin-3-yl]benzenesulfonamide; bis(trifluoroacetic acid)], for which, in test [1], the “% inhibition” value is “C (>70%)” and the pIC50 entry is recorded as “C (NHE3 pIC50 > 7)”. Moreover, in test [2], the “% inhibition” value is “C (>70%)” and the pIC50 entry is given as “C (NHE3 pIC50 > 7)”.

For the compound `N#Cc1cc(Cl)cc2c1C[C@H](N1CCNCC1)[C@H]2Oc1ccc(S(=O)(=O)N[C@H]2CCN(CCOCCNC(=O)NCCCCNC(=O)NCCOCCN3CC[C@H](NS(=O)(=O)c4ccc(O[C@H]5c6cc(Cl)cc(C#N)c6C[C@@H]5N5CCNCC5)cc4)C3)C2)cc1` [Example 107, 4-([(1S,2S)-6-Chloro-4-cyano-2-(piperazin-1-yl)-2,3-dihydro-1H-inden-1-yl]oxy)-N—[(S)-1-(20-[(S)-3-([4-([(1S,2S)-6-chloro-4-cyano-2-(piperazin-1-yl)-2,3-dihydro-1H-inden-1-yl]oxy)phenyl]sulfonamido)pyrrolidin-1-yl]-7,14-dioxo-3,18-dioxa-6,8,13,15-tetraazaicosyl)pyrrolidin-3-yl]benzenesulfonamide; tetra(trifluoroacetate)], in test [1], the “% inhibition” value was “C (>70%)” and the pIC50 result is “C (NHE3 pIC50 > 7)”. Moreover, in test [2], the “% inhibition” value was “C (>70%)” and the pIC50 entry is listed as “C (NHE3 pIC50 > 7)”.

In the case of `N#Cc1cc(Cl)cc2c1C[C@H](N1CCNCC1)[C@H]2Oc1ccc(S(=O)(=O)N[C@@H]2CCN(CCOCCNC(=O)NCCCCNC(=O)NCCOCCN3CC[C@@H](NS(=O)(=O)c4ccc(O[C@H]5c6cc(Cl)cc(C#N)c6C[C@@H]5N5CCNCC5)c(F)c4)C3)C2)cc1F` [Example 109, 4-([(1S,2S)-6-Chloro-4-cyano-2-(piperazin-1-yl)-2,3-dihydro-1H-inden-1-yl]oxy)-N—[(R)-1-(20-[(R)-3-[(4-([(1S,2S)-6-chloro-4-cyano-2-(piperazin-1-yl)-2,3-dihydro-1H-inden-1-yl]oxy)-3-fluorophenyl)sulfonamide)pyrrolidin-1-yl]-7,14-dioxo-3,18-dioxa-6,8,13,15-tetraazaicosyl)pyrrolidin-3-yl]-3-fluorobenzenesulfonamide; tetra(trifluoroacetate)], in test [1], the “% inhibition” value is listed as “C (>70%)” and the pIC50 result was “C (NHE3 pIC50 > 7)”. Also, in test [2], the “% inhibition” value was “C (>70%)” and the pIC50 entry was “C (NHE3 pIC50 > 7)”.

As for `Cc1cc(S(=O)(=O)N2CC[C@@H](COCCOCCNC(=O)NCCCCNC(=O)NCCOCCOC[C@@H]3CCN(S(=O)(=O)c4ccc(O[C@H]5c6cc(Cl)cc(Cl)c6C[C@@H]5N(C)C)c(C)c4)C3)C2)ccc1O[C@H]1c2cc(Cl)cc(Cl)c2C[C@@H]1N(C)C` [Example 45, 3-[2-(2-[[(3R)-1-[(4-[[(1S,2S)-4,6-Dichloro-2-(dimethylamino)-2,3-dihydro-1H-inden-1-yl]oxy]-3-methylbenzene)sulfonyl]pyrrolidin-3-yl]methoxy]ethoxy)ethyl]-1-[4-([[2-(2[[(3R)-1-[(4-[[(1S,2S)-4,6-dichloro-2-(dimethylamino)-2,3-dihydro-1H-inden-1-yl]oxy]-3-methylbenzene)sulfonyl]pyrrolidin-3-yl]methoxy]ethoxy)ethyl]carbamoyl]amino)butyl]urea; bis(trifluoroacetic acid)], in test [1], the “% inhibition” value is reported as “C (>70%)” and the pIC50 result is recorded as “C (NHE3 pIC50 > 7)”. Moreover, in test [2], the “% inhibition” value is reported as “C (>70%)” and the pIC50 result is listed as “C (NHE3 pIC50 > 7)”.
